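Cultured in 96-well plates, cells were exposed to test compound for 48 hours across five concentrations. GI50: concentration for 50% inhibition of growth.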 Active and inactive are the calls of the source. No stated cut-off is given here; in the data, active = GI50 up to about 1.1 µM and inactive = higher.
How the values were obtained:
Test in all cases: growth of human tumour cells (NCI), 48 h
K562 = tested on: K562
OVCAR-4 = tested on: OVCAR-4
NCI-H23 = tested on: NCI-H23
RXF 631 = tested on: RXF 631
SK-MEL-28 = tested on: SK-MEL-28
XF498 = tested on: XF498
DMS-273 = tested on: DMS-273
OVCAR-3 = tested on: OVCAR-3
NCI-H522 = tested on: NCI-H522
UACC-257 = tested on: UACC-257
SR = tested on: SR
LXFL 529 = tested on: LXFL 529
OVCAR-8 = tested on: OVCAR-8
786-0 = tested on: 786-0
NCI-H226 = tested on: NCI-H226
SK-MEL-2 = tested on: SK-MEL-2
RPMI-8226 = tested on: RPMI-8226
SNB-78 = tested on: SNB-78
HT-29 = tested on: HT-29
KM12 = tested on: KM12
SK-OV-3 = tested on: SK-OV-3
SF-539 = tested on: SF-539
CCRF-CEM = tested on: CCRF-CEM
RXF 393 = tested on: RXF 393
SK-MEL-5 = tested on: SK-MEL-5
A498 = tested on: A498
TK-10 = tested on: TK-10
M19-MEL = tested on: M19-MEL
UO-31 = tested on: UO-31
SN12C = tested on: SN12C
A549 = tested on: A549
M14 = tested on: M14
SNB-19 = tested on: SNB-19
Malme-3M = tested on: Malme-3M
DLD-1 = tested on: DLD-1
HOP-62 = tested on: HOP-62
SW-620 = tested on: SW-620
U-251 = tested on: U-251
SF-295 = tested on: SF-295
ACHN = tested on: ACHN
SF-268 = tested on: SF-268
NCI-H460 = tested on: NCI-H460
HL-60 = tested on: HL-60
LOX IMVI = tested on: LOX IMVI
HCT-116 = tested on: HCT-116
DMS-114 = tested on: DMS-114
HOP-18 = tested on: HOP-18
HCC 2998 = tested on: HCC 2998
SNB-75 = tested on: SNB-75
IGROV-1 = tested on: IGROV-1
HCT-15 = tested on: HCT-15
COLO 205 = tested on: COLO 205
OVCAR-5 = tested on: OVCAR-5
MOLT-4 = tested on: MOLT-4
CAKI-1 = tested on: CAKI-1
KM-20L2 = tested on: KM-20L2
UACC-62 = tested on: UACC-62
EKVX = tested on: EKVX
HOP-92 = tested on: HOP-92

## Cc1[nH]c2ccccc2c1C(=O)CC1(O)C(=O)Nc2c(Cl)cc(Cl)cc21 (stereo not given)
K562
  GI50: 20.9 µM (inactive)
OVCAR-4
  GI50: 9.75 µM (inactive)
NCI-H23
  GI50: 19.5 µM (inactive)
RXF 631
  GI50: 29.4 µM (inactive)
SK-MEL-28
  GI50: 27 µM (inactive)
XF498
  GI50: 18.2 µM (inactive)
DMS-273
  GI50: 49.1 µM (inactive)
OVCAR-3
  GI50: 16.6 µM (inactive)
NCI-H522
  GI50: 16.9 µM (inactive)
UACC-257
  GI50: 17.2 µM (inactive)
SR
  GI50: 28.4 µM (inactive)
LXFL 529
  GI50: 16.4 µM (inactive)
OVCAR-8
  GI50: 24.3 µM (inactive)
786-0
  GI50: 26.8 µM (inactive)
NCI-H226
  GI50: 18.8 µM (inactive)
SK-MEL-2
  GI50: 28.6 µM (inactive)
RPMI-8226
  GI50: 25.5 µM (inactive)
SNB-78
  GI50: 40.7 µM (inactive)
HT-29
  GI50: 54.3 µM (inactive)
KM12
  GI50: 61.9 µM (inactive)
SK-OV-3
  GI50: 72.3 µM (inactive)
SF-539
  GI50: 26.4 µM (inactive)
CCRF-CEM
  GI50: 20.3 µM (inactive)
RXF 393
  GI50: 22.2 µM (inactive)
SK-MEL-5
  GI50: 17.2 µM (inactive)
A498
  GI50: 33 µM (inactive)
TK-10
  GI50: 39.4 µM (inactive)
M19-MEL
  GI50: 9.31 µM (inactive)
UO-31
  GI50: 26.3 µM (inactive)
SN12C
  GI50: 24.8 µM (inactive)
A549
  GI50: 36.1 µM (inactive)
M14
  GI50: 21.5 µM (inactive)
SNB-19
  GI50: 41.3 µM (inactive)
Malme-3M
  GI50: 18.9 µM (inactive)
DLD-1
  GI50: 44.9 µM (inactive)
HOP-62
  GI50: 46.9 µM (inactive)
SW-620
  GI50: 22.2 µM (inactive)
U-251
  GI50: 30.1 µM (inactive)
SF-295
  GI50: 19.5 µM (inactive)
ACHN
  GI50: 21.9 µM (inactive)
SF-268
  GI50: 25.3 µM (inactive)
NCI-H460
  GI50: 48.9 µM (inactive)
HL-60
  GI50: 14.6 µM (inactive)
LOX IMVI
  GI50: 27 µM (inactive)
HCT-116
  GI50: 35.1 µM (inactive)
DMS-114
  GI50: 24.3 µM (inactive)
HOP-18
  GI50: 25.6 µM (inactive)
HCC 2998
  GI50: 51.6 µM (inactive)
SNB-75
  GI50: 27.9 µM (inactive)
IGROV-1
  GI50: 53.1 µM (inactive)
HCT-15
  GI50: 40.5 µM
COLO 205
  GI50: 30.1 µM (inactive)
OVCAR-5
  GI50: 24 µM (inactive)
MOLT-4
  GI50: 22.1 µM (inactive)
CAKI-1
  GI50: 40.8 µM (inactive)

## Cc1cccc(-c2cc(=O)c3cc(C)c(C)c(C(=O)O)c3o2)c1
K562
  GI50: > 100 µM (inactive)
OVCAR-4
  GI50: > 100 µM (inactive)
NCI-H23
  GI50: > 100 µM (inactive)
RXF 631
  GI50: > 100 µM (inactive)
SK-MEL-28
  GI50: > 100 µM (inactive)
XF498
  GI50: > 100 µM (inactive)
DMS-273
  GI50: > 100 µM (inactive)
OVCAR-3
  GI50: > 100 µM (inactive)
NCI-H522
  GI50: > 100 µM (inactive)
UACC-257
  GI50: > 100 µM (inactive)
SR
  GI50: > 100 µM (inactive)
LXFL 529
  GI50: > 100 µM (inactive)
KM-20L2
  GI50: > 100 µM (inactive)
OVCAR-8
  GI50: > 100 µM (inactive)
786-0
  GI50: > 100 µM (inactive)
NCI-H226
  GI50: > 100 µM (inactive)
SK-MEL-2
  GI50: > 100 µM (inactive)
RPMI-8226
  GI50: > 100 µM (inactive)
SNB-78
  GI50: > 100 µM (inactive)
HT-29
  GI50: > 100 µM (inactive)
KM12
  GI50: > 100 µM (inactive)
SK-OV-3
  GI50: > 100 µM (inactive)
SF-539
  GI50: > 100 µM (inactive)
CCRF-CEM
  GI50: > 100 µM (inactive)
SK-MEL-5
  GI50: > 100 µM (inactive)
TK-10
  GI50: > 100 µM (inactive)
M19-MEL
  GI50: > 100 µM (inactive)
UO-31
  GI50: > 100 µM (inactive)
UACC-62
  GI50: > 100 µM (inactive)
EKVX
  GI50: > 100 µM (inactive)
SN12C
  GI50: > 100 µM (inactive)
A549
  GI50: > 100 µM (inactive)
M14
  GI50: > 100 µM (inactive)
SNB-19
  GI50: > 100 µM (inactive)
HOP-92
  GI50: > 100 µM (inactive)
Malme-3M
  GI50: > 100 µM (inactive)
DLD-1
  GI50: > 100 µM (inactive)
HOP-62
  GI50: > 100 µM (inactive)
SW-620
  GI50: > 100 µM (inactive)
U-251
  GI50: > 100 µM (inactive)
SF-295
  GI50: > 100 µM (inactive)
ACHN
  GI50: > 100 µM (inactive)
NCI-H460
  GI50: > 100 µM (inactive)
HL-60
  GI50: > 100 µM (inactive)
LOX IMVI
  GI50: > 100 µM (inactive)
HCT-116
  GI50: > 100 µM (inactive)
DMS-114
  GI50: > 100 µM (inactive)
HOP-18
  GI50: > 100 µM (inactive)
HCC 2998
  GI50: > 100 µM (inactive)
SNB-75
  GI50: > 100 µM (inactive)
IGROV-1
  GI50: > 100 µM (inactive)
HCT-15
  GI50: > 100 µM
COLO 205
  GI50: > 100 µM (inactive)
OVCAR-5
  GI50: > 100 µM (inactive)
MOLT-4
  GI50: > 100 µM (inactive)
CAKI-1
  GI50: > 100 µM (inactive)

## COc1ccc(C2C(C(=O)O)=C(CO)Oc3cc4c(cc32)OCO4)c(OC)c1 (stereo not given)
K562
  GI50: 87.5 µM (inactive)
OVCAR-4
  GI50: 78 µM (inactive)
NCI-H23
  GI50: > 100 µM (inactive)
RXF 631
  GI50: 87.3 µM (inactive)
SK-MEL-28
  GI50: 46.2 µM (inactive)
XF498
  GI50: 9.73 µM (inactive)
DMS-273
  GI50: 60.3 µM (inactive)
OVCAR-3
  GI50: 57.5 µM (inactive)
UACC-257
  GI50: > 100 µM (inactive)
KM-20L2
  GI50: > 100 µM (inactive)
OVCAR-8
  GI50: 98.4 µM (inactive)
786-0
  GI50: > 100 µM (inactive)
RPMI-8226
  GI50: > 100 µM (inactive)
SNB-78
  GI50: > 100 µM (inactive)
HT-29
  GI50: 67.6 µM (inactive)
SK-OV-3
  GI50: > 100 µM (inactive)
SF-539
  GI50: 70 µM (inactive)
CCRF-CEM
  GI50: 31 µM (inactive)
RXF 393
  GI50: > 100 µM (inactive)
SK-MEL-5
  GI50: 42.8 µM (inactive)
TK-10
  GI50: > 100 µM (inactive)
M19-MEL
  GI50: 60.4 µM (inactive)
UO-31
  GI50: 36.9 µM (inactive)
UACC-62
  GI50: 57.3 µM (inactive)
EKVX
  GI50: > 100 µM (inactive)
SN12C
  GI50: 43.1 µM (inactive)
A549
  GI50: 70.3 µM (inactive)
M14
  GI50: > 100 µM (inactive)
SNB-19
  GI50: 70.5 µM (inactive)
HOP-92
  GI50: > 100 µM (inactive)
Malme-3M
  GI50: > 100 µM (inactive)
DLD-1
  GI50: 54.7 µM (inactive)
HOP-62
  GI50: 18.8 µM (inactive)
SW-620
  GI50: > 100 µM (inactive)
U-251
  GI50: 81.1 µM (inactive)
SF-295
  GI50: 62.7 µM (inactive)
ACHN
  GI50: 63.1 µM (inactive)
NCI-H460
  GI50: > 100 µM (inactive)
HL-60
  GI50: > 100 µM (inactive)
LOX IMVI
  GI50: 45.1 µM (inactive)
HCT-116
  GI50: 78.2 µM (inactive)
DMS-114
  GI50: 84.5 µM (inactive)
HOP-18
  GI50: 98.2 µM (inactive)
SNB-75
  GI50: > 100 µM (inactive)
IGROV-1
  GI50: > 100 µM (inactive)
HCT-15
  GI50: 67.9 µM
COLO 205
  GI50: 68.7 µM (inactive)
MOLT-4
  GI50: 22.5 µM (inactive)
CAKI-1
  GI50: 88.1 µM (inactive)

Source: ChEMBL document CHEMBL1201862, “PubChem BioAssay data set” (2004)
